Measurements reported in US12638451B2, “Genetic amplified tumor homing nanoparticles and compositions and methods thereof” (priority 2019, dated 2026).

Tested on: xenograft models of prostate cancer
Experiment: In vivo antitumor efficacy
Set-up: species or system mice
Settings: Dox 22 μg/mL or Tf-Dox containing 5 μg/mL Dox i.v.; Ad.DD3 intratumoral 7 days before; 14 days observation
Description: To study the in vivo enhancement effect of the genetic probes on the antitumor efficacy of Tf-Dox, we first established xenograft models of prostate cancer by subcutaneous injection of LNCap tumor cells (about 1×10^6) in Matrigel (BD Biosciences; 1/1) into the left shoulder of BALB/c male mice. […] During 14 days of observation, we monitored the tumor volumes according to the following formula: V=a×b^2/2 where a and b were the longest and shortest diameters of the tumor, respectively, measured using a Vernier caliper. […] The reduced injection dose, in turn, is promising to lower down the distribution and biotoxicity of drugs towards the normal tissues. […] Thus, the optimized therapy outcome of the gene-nanoparticle synergetic strategy is resulted from the enhanced tumor homing ability of the nanoparticles leading to higher DOX accumulation in the tumor cells rather than the antitumor effect of the gene probes.
Xenograft models of prostate cancer were established by subcutaneous injection of LNCap tumor cells (about 1×10^6) in Matrigel (BD Biosciences; 1/1) into the left shoulder of BALB/c male mice. […] Changes in tumor volume and body weight were monitored at several scheduled time-points. The volume of the tumor was calculated according to the following formula: V=a×b^2/2 where a and b were the longest and shortest diameters of tumor, respectively, measured using a Vernier calliper. […]

With Tf-Dox the “Tumor volume / tumor inhibition” value was “an increase of tumor volume was visualized”.
